The source of these data is US20180106782A1, “HIGH THROUGHPUT CARDIOTOXICITY SCREENING PLATFORM” (The Board of Trustees of the Leland Stanford Junior …, priority 2016, published 2018).

The subject of this assay is μpatterned hiPSC-CMs. Put plainly: traction force microscopy of moving microbeads under beating μpatterned hiPSC-CMs. The conditions noted are these: for absolute values of dmax, VC, VR, ΣFmax, PC and PR: six single cells (FIG. 5). The assay is classed as cell-based, human. The procedure: We cultured single hiPSC-CMs on Matrigel micropatterns, which were transferred from printed glass coverslips onto the surface of polyacrylamide hydrogels with a stiffness of 10 kPa as previously described. (Ribeiro 2015a) In summary, Matrigel was diluted 1:10 in L15 medium (Thermo Fisher) and added to the top of elastomeric microstamps composed of polydimethylsiloxane 182 (Dow Corning) to be incubated at 3-4° C. overnight. Microstamps consisted of 2000 μm^2 rectangular features with an aspect ratio of 7:1 (length:width). We gently aspirated Matrigel after the overnight incubation, washed the stamps twice in L15 medium, aspirated L15 medium from the surface and dried it with a low stream of N2 gas. We then used microstamps to micropattern the Matrigel rectangular features on clean glass coverslips by microcontact printing. Matrigel on micropatterns was transferred to the surface of the polyacrylamide substrates during the gelation process by placing the patterned coverslip in contact with the top of the acrylamide prepolymer solution right before gelation. The aqueous prepolymer solution to be gelled was composed of acrylamide (Sigma-Aldrich)(10% w/v), bisacrylamide (Sigma-Aldrich) (0.1% w/v), ammonium persulfate (Sigma-Aldrich) (0.01% w/v) and N,N,N′,N′-tetramethylethylenediamine (Sigma-Aldrich) (0.1% v/v), HEPES (Thermo Fisher) (35 mM) and Milli-Q water. To calculate the forces generated by cells attached to polyacrylamide surfaces with traction force microscopy, green fluorescent microbeads with a diameter of 0.2 μm (Thermo Fisher) were also dispersed in the gel solution to yield a final concentration of 6.25×10^9 microbeads/mL. We gelled acrylamide on top of another coverslip functionalized with 3-(trimethoxysilyl)propyl methacrylate (Sigma-Aldrich), which binds polyacrylamide. […] Once polymerized, polyacrylamide substrates were incubated in PBS for at least 2 hours and the top coverslips were carefully removed with a razor blade. We seeded hiPSC-CMs on these polyacrylamide hydrogel substrates after washing them 3 times with PBS.
We passaged hiPSC-CMs onto micropatterned polyacrylamide devices at a density of 1000 cells/cm^2. For this purpose, cultures of thawed cells were washed twice with PBS and incubated in 1 mL of Accutase for 8-10 min. After observing cell detachment from the bottom of the wells, we quenched Accutase with Dulbecco's modified Eagle's medium (Thermo Fisher) containing 12% fetal bovine serum and counted the concentration of cells in medium with a hemocytometer. Then, we centrifuged cells at 83 rcf for 3 min at room temperature and aspirated the supernatant to resuspend the pelleted cells in the required volume of medium (RPMI-1640 cell-culture medium with 5 μM ROCK inhibitor) for adding 150 μL of cell solution to the surface of hydrogel devices at a concentration of 1000 cells/cm^2. After 1.5 h of incubation, we added 2.5 mL of medium to the well containing hydrogel devices and added fresh medium without ROCK inhibitor after 2 days. Single beating cells on Matrigel patterns were analyzed between 5-10 days after seeding.
We imaged the movement of beating hiPSC-CMs and the displacement of fluorescent microbeads embedded in polyacrylamide substrates with a Zeiss Axiovert 200M inverted microscope equipped with a Zeiss Axiocam MRm CCD camera. This microscope also contained an environmental chamber (PeCon) to set temperature at 37° C. Unless otherwise noted, we acquired microscopy videos while electrically pacing hiPSC-CMs with 10 ms-wide bipolar pulses of electric-field stimulation at 10-15 V with a frequency of 1 Hz (Myopacer, lonOptix).
To induce contractile changes in hiPSC-CMs, we added drugs known to affect CM contractile machinery to the culture medium. We analyzed the mechanical output of cells after adding drugs. […]

`COC(=O)N1CCN(Cc2cccc(NC(=O)Nc3ccc(C)nc3)c2F)CC1` [omecamtiv mecarbil]: the “mechanical output (inotropy)” value (0.1 μM and 10 nM omecamtiv mecarbil, videos within 5 minutes after adding, 6 cells (FIG. 10)) is recorded as “decreased mechanical output (negative inotropy)”. Also, the “ΣFmax and br, acute” value (0.1 μM omecamtiv mecarbil, single cell (FIG. 6D)) was “slight acute increase”. Moreover, the “absolute values of PC and PR right after adding” value (0.1 μM omecamtiv mecarbil, single cell, even decreased in some contractile events (FIG. 6E)) is “did not vary”. Besides, the “PR (peak power of relaxation)” value was found to be 0.02 picoW (OM 0.1 μM (FIG. 6), row 'acute', single cell, no OM: 0.6) and 0.59 picoW (OM 0.1 μM (FIG. 6), row 'chronic', single cell, no OM: 0.6). In addition, the “ΣFmax (peak force)” value came to 0.14 μN (OM 0.1 μM (FIG. 6), row 'acute', single cell, no OM: 0.7) and 0.72 μN (OM 0.1 μM (FIG. 6), row 'chronic', single cell, no OM: 0.7). The “PC (peak power of contraction)” value (OM 0.1 μM (FIG. 6), row 'acute', single cell, no OM: 0.75) is given as 0.04 picoW and the “PC (peak power of contraction)” value (OM 0.1 μM (FIG. 6), row 'chronic', single cell, no OM: 0.75) came out at 0.67 picoW. Besides, the “VR (peak velocity of relaxation)” value is recorded as 0.18 μm/s (OM 0.1 μM (FIG. 6), row 'acute', single cell, no OM: 1.18) and 1.1 μm/s (OM 0.1 μM (FIG. 6), row 'chronic', single cell, no OM: 1.18). Also, the “VC (peak velocity of contraction)” value (OM 0.1 μM (FIG. 6), row 'acute', single cell, no OM: 1.35) was found to be 0.29 μm/s and the “VC (peak velocity of contraction)” value (OM 0.1 μM (FIG. 6), row 'chronic', single cell, no OM: 1.35) is listed as 1.22 μm/s. Also, the time of contractions result (higher concentrations of omecamtiv mecarbil (FIG. 10D)) was “increase”. The rate of beating result (lower concentrations of omecamtiv mecarbil (FIG. 10E)) is “increased”. Further, for the setting “omecamtiv mecarbil, within 5 minutes after adding (FIG. 10D,E)”, the “variations of t̂ and br between 0.1 μM and 10 nM” value was “statistically different”. Moreover, under “within 10 seconds of adding 0.1 μM omecamtiv mecarbil, single cell (FIG. 10J)”, the “instantaneous acute inotropic effect” value is listed as “positive inotropy”.
Take `CC(C)NCC(O)c1ccc(O)c(O)c1` (stereo not drawn) [isoproterenol]: the “t̂ (time between peak velocity of contraction and of relaxation)” value (0.1 μM and 1 μM isoproterenol, six cells, no significant difference between the two concentrations (FIG. 5G)) is given as “decreased”. The “br (beat rate)” value (0.1 μM and 1 μM isoproterenol, six cells, no significant difference between the two concentrations (FIG. 5H)) is given as “increased”; the “br (beat rate)” value (0.1 μM isoproterenol, single cell (FIG. 4D)) is “increased”; the “br (beat rate)” value (1 μM isoproterenol, single cell (FIG. 4D)) is reported as “clear increase”. Further, the “absolute values of dmax, VC, VR, ΣFmax, PC and PR” value (0.1 μM isoproterenol) was “consistently increased”; the “absolute values of dmax, VC, VR, ΣFmax, PC and PR” value (1 μM isoproterenol) is listed as “decreased”. Further, the “ΣFmax, PC and PR” value (1 μM isoproterenol, single cell (FIG. 4D,E)) is given as “substantial decrease”. Besides, the “PR (peak power of relaxation)” value came out at 0.36 picoW (ISO 0.1 (μM per FIG. 4), single cell, no ISO: 0.28) and 0.06 picoW (ISO 1 (μM per FIG. 4), single cell, no ISO: 0.28). In addition, the “ΣFmax (peak force)” value runs as follows: (ISO 0.1 (μM per FIG. 4), single cell, no ISO: 0.53) 0.58 μN; (ISO 1 (μM per FIG. 4), single cell, no ISO: 0.53) 0.15 μN. Moreover, the “PC (peak power of contraction)” value is reported as 0.86 picoW (ISO 0.1 (μM per FIG. 4), single cell, no ISO: 0.7) and 0.1 picoW (ISO 1 (μM per FIG. 4), single cell, no ISO: 0.7). The “VR (peak velocity of relaxation)” value is, setting by setting: (ISO 0.1 (μM per FIG. 4), single cell, no ISO: 1.05) 0.85 μm/s; (ISO 1 (μM per FIG. 4), single cell, no ISO: 1.05) 0.93 μm/s. The “VC (peak velocity of contraction)” value runs as follows: (ISO 0.1 (μM per FIG. 4), single cell, no ISO: 1.68) 1.92 μm/s; (ISO 1 (μM per FIG. 4), single cell, no ISO: 1.68) 0.43 μm/s. Besides, the “inotropic and chronotropic response” value is “positive inotropic and positive chronotropic responses” (extracellular isoproterenol 0.1 μM (FIGS. 4 and 5)); “negative inotropic effect, but a stronger chronotropic response” (isoproterenol increased to 1 μM (FIGS. 4 and 5)).
